PMC9374667 (Communications Biology, 2022)
Values joined by “and” are separate entries in the source; they are usually repeats but may differ in a detail not shown here. Equal entries are not always repeated.

Columns and labels:
[1] = pH of the solution after 24 hours of the dissolution test; type: physicochemical
Method: Solubilities were determined by adding excess sample to 30 mL different mediums, such as HCl solution, acetate buffer, phosphate buffer, SGF, FaSSIF and FeSSIF. The configuration of various buffer solutions is shown in Supplementary Table 2. After being shaken at 400 rpm at 37 °C for 0.5, 1, 2, and 24 h, 0.3 mL of suspension was sampled and centrifuged at 14,000 rpm for 8 min to isolate mother liquor, and then analyzed by HPLC after dilution. All samples were analyzed in triplicate. […]
into a 1000 mL flask followed by addition of about 800 mL of deionized water. The mixture is stirred until all solids are dissolved.
Add about 100 mL of 0.1 N HCl, check pH value with a pH meter and adjust the pH to 2.0 with HCl (1 N) or NaOH (1 N). Then dilute to the volume with deionized water.
* 1N sodium hydroxide: Weigh 8 g NaOH in a 200 mL plastic volumetric flask, add deionized water to volume and mix well. […]
phosphate and 3.093 g sodium chloride in a 500 mL volumetric flask, add about 0.450 L deionized water, and adjust the pH to 6.5 with 1N sodium hydroxide or 1 N hydrochloric acid. Make up to volume (0.5 […]
Step 2: Place and dissolve 1.120 g FaSSIF/FeSSIF/FaSSGF instant powder with 0.250 L of buffer (from step 1) in a 500 mL volumetric flask, then add buffer (from step 1) to volume, and mix well. […]
g sodium chloride in a 500 mL volumetric flask, add about 0.450 L deionized water, and adjust the pH to 5.0 with 1 N sodium hydroxide or 1 N hydrochloric acid. Make up to volume (500 mL) with
Step 2: Place and dissolve 5.600 g FaSSIF/FeSSIF/FaSSGF instant […]
0.750 L deionized water. Make up to volume (1000 mL) with deionized water and placed overnight.
(1 picture or pasted object on this page, not shown here)

[2] = system: db/db mice; test: Body weight of db/db mice during 35-day treatment; type: in vivo; settings: db/db mice
Method: (§1) The lean wild type control and the db/db control mice were given equal vehicle volume (0.5% CMC-Na solution). All mice were monitored for food intake, body weight, and fasting blood glucose during the 35-day trial. Glucose tolerance test (GTT) and insulin resistance test (ITT) were performed at 4 and 5 weeks of treatment, respectively. Metabolic analysis was performed at 5 weeks of treatment. At the end of the study, blood samples were taken through the retroorbital venous sinus of mice, fat depots (brown fat, inguinal subcutaneous fat, epididymal fat, perirenal fat and mesenteric fat depot) were dissected, weighed, and immediately frozen in liquid nitrogen and stored at −80 °C until required. Weight of fat depots are expressed in percentage (fat depots weight /bodyweight * 100%).

[3] = system: db/db mice; test: Fat depots weight (BAT, iWAT, eWAT; percentage of body weight); type: in vivo; parameters: key to BAT fat depot weight (Figure 4c): % of body weight (fat depot weight / body weight * 100%); settings: db/db mice
Method: as §1

[4] = system: db/db mice; test: Fasting serum insulin levels (ELISA); type: in vivo; parameters: insulin level (Figure 5b): unit not given here; settings: db/db mice
Method: Mice were fasted for 4 h for insulin resistance test and intraperitoneally injected with 1 unit/kg of insulin. Blood glucose levels were measured from the tail vein blood at 0, 15, 30, 45, 60, 90, and 120 min after injection. Plasma insulin levels were measured using an ultrasensitive mouse insulin ELISA kit (Nanjing Jiancheng Bioengineering Institute, Nanjing, China).

[5] = system: db/db mice; test: Glucose tolerance test (GTT); type: in vivo; parameters: blood glucose level / blood glucose AUC: unit not given here; settings: BBR 150mg/kg; for blood glucose level, mean: mean of 10 mice
[6] = system: db/db mice; test: Serum CHO, TG, FFA, LDL-C, HDL-C and ADPN in the fasted state; type: in vivo; parameters: FFA (Figure 4g) / LDL-C (Figure 4h) / HDL-C (Figure 4i) / ADPN (Figure 4j): unit not given here; settings: db/db mice
Method: The serum was collected by centrifugation at 3000 × g at 4 °C for 15 min and stored at −80 °C until analysis. TG, TC, LDL-C, HDL-C, and FFA were routinely tested on a Chemray 240 automatic biochemical analyzer (Chemray 240, Shenzhen, China). Serum levels of mouse adiponectin, interleukin6 (IL-6), tumor necrosis factor-α (TNF-α) were measured using commercial enzyme-linked immunosorbent assay (ELISA) kits (Nanjing Jiancheng Bioengineering Institute, Nanjing, China) and according to the manufacturer’s instructions. The levels of IL-6, TNF-α in 3T3-L1 adipocyte culture supernatant were also detected by ELISA.

[7] = BBR 150mg/kg, individual mice 1-10, in %
[8] = BBR 150mg/kg, serum, individual mice 1-6
[9] = 150 mg/kg, fasted state, individual mice
[10] = vs vehicle, BJ 75 and 150 mg/kg, BBR 150 mg/kg, Ibu 150 mg/kg

COc1ccc2cc3[n+](cc2c1OC)CCc1cc2c(cc1-3)OCO2 [BBR, Berberine chloride dihydrate]
pH of the solution after 24 hours ([1]; Acetate buffer, blank vehicle 4.54): 4.57
pH of the solution after 24 hours ([1]; CMC-Na, blank vehicle 6.51): 6.20
pH of the solution after 24 hours ([1]; FaSSIF-v1, blank vehicle 6.51): 6.54
pH of the solution after 24 hours ([1]; FeSSIF-v1, blank vehicle 5.04): 5.03
pH of the solution after 24 hours ([1]; HCl solution, blank vehicle 1.08): 1.05
pH of the solution after 24 hours ([1]; Phosphate buffer, blank vehicle 6.84): 6.90
pH of the solution after 24 hours ([1]; SGF, blank vehicle 2.03): 2.07
Body weight ([2]; 150 mg/kg gavage once per day, day 1, individual mice, 150 mg/kg): 41 grams and 40 grams and 42 grams and 36 grams and 39 grams and 37 grams
Body weight ([2]; 150 mg/kg gavage once per day, day 4, individual mice, 150 mg/kg): 40 grams and 41 grams and 37 grams and 39 grams
Body weight ([2]; 150 mg/kg gavage once per day, day 7, individual mice, 150 mg/kg): 42 grams and 43 grams and 37 grams and 38 grams and 39 grams and 41 grams
Body weight ([2]; 150 mg/kg gavage once per day, day 10, individual mice, 150 mg/kg): 42 grams and 43 grams and 44 grams and 38 grams and 39 grams and 40 grams
Body weight ([2]; 150 mg/kg gavage once per day, day 13, individual mice, 150 mg/kg): 43 grams and 44 grams and 38 grams and 39 grams and 41 grams
Body weight ([2]; 150 mg/kg gavage once per day, day 16, individual mice, 150 mg/kg): 45 grams and 43 grams and 44 grams and 38 grams and 39 grams and 42 grams and 41 grams
Body weight ([2]; 150 mg/kg gavage once per day, day 19, individual mice, 150 mg/kg): 44 grams and 43 grams and 37 grams and 40 grams and 42 grams
Body weight ([2]; 150 mg/kg gavage once per day, day 22, individual mice, 150 mg/kg): 42 grams and 45 grams and 41 grams and 39 grams and 43 grams and 44 grams
Body weight ([2]; 150 mg/kg gavage once per day, day 25, individual mice, 150 mg/kg): 42 grams and 46 grams and 43 grams and 38 grams and 39 grams and 44 grams and 40 grams and 45 grams
Body weight ([2]; 150 mg/kg gavage once per day, day 28, individual mice, 150 mg/kg): 44 grams and 47 grams and 43 grams and 39 grams and 45 grams and 46 grams
Body weight ([2]; 150 mg/kg gavage once per day, day 31, individual mice, 150 mg/kg): 46 grams and 48 grams and 49 grams and 41 grams and 42 grams and 47 grams and 43 grams and 45 grams
Body weight ([2]; 150 mg/kg gavage once per day, day 34, individual mice, 150 mg/kg): 48 grams and 46 grams and 50 grams and 51 grams and 43 grams and 47 grams and 45 grams
Average body weight gain ([2]; 150 mg/kg gavage once per day, day 35, mean ± SD): 7.6 ± 0.8 g
Body weight gain in 5 weeks ([2]; 150 mg/kg gavage once per day, individual mice, 150 mg/kg): 8 grams and 7 grams and 6 grams and 9 grams
Body weight compared with vehicle ([2]; 5 weeks, BJ 75 and 150 mg/kg, BBR 150 mg/kg, Ibu 150 mg/kg): lower body weight than the db/db mice treated with the vehicle
BAT fat depot weight (Figure 4c) ([3]; BBR 150mg/kg, individual mice 1-10): 2.4015 and 0.6109 and 1.4913 and 1.4054 and 1.8804 and 2.4038 and 1.1343 and 1.618 and 1.1772 and 2.0775
eWAT fat depot weight (Figure 4c) [3, 7]: 2.6561 and 3.1311 and 2.7778 and 2.6199 and 2.8014 and 3.2406 and 2.7924 and 3.779 and 2.6477 and 2.5027
iWAT fat depot weight (Figure 4c) [3, 7]: 3.5734 and 2.9857 and 2.7524 and 3.658 and 3.8567 and 3.8981 and 3.3728 and 3.0795 and 1.8382 and 2.8305
Fat depots weight / body weight ([3]; 150 mg/kg for 35 days, individual mice, 150 mg/kg): 19.7808% and 22.3551% and 14.9978% and 19.6619% and 20.7394% and 16.7296% and 16.0902% and 17.3833% and 23.2726% and 23.7021%
Fat depots weight compared with vehicle ([3]; BJ 75 and 150 mg/kg, BBR 150 mg/kg, Ibu 150 mg/kg): lower fat depots weight than vehicle-treated db/db mice
insulin level (Figure 5b) ([4]; BBR 150mg/kg, fasting serum, individual mice 1-6): 14.8249 and 14.5179 and 14.1979 and 10.7342 and 12.3345 and 12.7422
Fasting serum insulin levels ([4]; 150 mg/kg, 35 days of treatment, vs vehicle): did not produce significant effects
blood glucose level ([5]; individual mice, time column 1 of 7 (time not printed)): 16.4 and 13.5 and 14.2 and 17.7 and 15.0 and 13.4 and 16.8
blood glucose level ([5]; individual mice, time column 2 of 7 (time not given)): 28.7 and 28.8 and 32.6 and 33.3
blood glucose level ([5]; individual mice, time column 3 of 7 (time not given)): 31.2 and 22.4 and 33.3 and 29.2
blood glucose level ([5]; individual mice, time column 4 of 7 (time not given)): 27.9 and 29.2 and 23.4 and 32.4 and 30.4
blood glucose level ([5]; individual mice, time column 5 of 7 (time not given)): 28.4 and 22.4 and 33.3 and 28.6
blood glucose level ([5]; individual mice, time column 6 of 7 (time not given)): 23.4 and 21.0 and 20.5
blood glucose level ([5]; individual mice, time column 7 of 7 (time not printed)): 17.7 and 16.7 and 22.7 and 19.6 and 20.9
blood glucose level, mean ([5]; time column 1 of 7 (time not printed)): 15 mmol/L
blood glucose level, mean ([5]; time column 2 of 7 (time not given)): 30.7 mmol/L
blood glucose level, mean ([5]; time column 3 of 7 (time not given)): 28.4 mmol/L
blood glucose level, mean ([5]; time column 4 of 7 (time not given)): 27.7 mmol/L
blood glucose level, mean ([5]; time column 6 of 7 (time not given)): 22.6 mmol/L
blood glucose level, mean ([5]; time column 7 of 7 (time not printed)): 20.1 mmol/L
blood glucose AUC ([5]; Figure 5d, individual mice): 3443.25 and 3088.5 and 2416.5 and 3051.75 and 2479.5 and 3425.25 and 2977.5 and 2793.75 and 3132 and 3001.5
ADPN (Figure 4j) [6, 8]: 531.25 and 533.16 and 569.22 and 520.27 and 517.83 and 573.58
FFA (Figure 4g) [6, 8]: 783.9 and 765.7 and 789.7 and 738.2 and 717.7 and 741.1
HDL-C (Figure 4i) [6, 8]: 2.5 and 2.8 and 2.4 and 2.7 and 3
LDL-C (Figure 4h) [6, 8]: 4.79 and 4.96 and 3.72 and 5.17 and 5.15
Serum CHO [6, 9]: 4 mmol/L and 4.5 mmol/L and 5.2 mmol/L and 4.6 mmol/L and 4.2 mmol/L
Serum TG [6, 9]: 1.66 mmol/L and 1.22 mmol/L and 1.5 mmol/L and 1 mmol/L and 0.96 mmol/L and 1.18 mmol/L
Serum levels of CHO, TG, FFA and LDL-C [6, 10]: decreased
Serum levels of HDL-C and adiponectin (ADPN) [6, 10]: increased
